{"source": "patent US8859617B2", "about": "“Use of furan alkyl for preparing an antidiabetic drug” (Laboratoires Expanscience, priority 2004, dated 2014)", "key": {"[1]": {"test_system": "mice on HF/HS diet", "experiment": "Intraperitoneal Glucose Tolerance Test (IPGTT)", "format": "in vivo", "details": "TZD; for Glucose resistance (IPGTT): preventive", "description": "Each study started at D-7 (i.e. 7 days before the start of the HF/HS diet) with an analysis of glucose tolerance using either an intra-peritoneal glucose tolerance test for some of the animals (n=5) or a sensitivity test to intravenous insulin for the other animals (n=5). At D=0 blood samples were taken to obtain basal condition values for all lipid and lipoprotein parameters, then the mice were randomly distributed irrespective of weight. The weight of each mouse and the quantity of food absorbed were measured twice a week. At weeks 3, 8, 15 and 23 the blood was collected after overnight fasting. At weeks 12 and 18 some of the animals (n=5) were subjected to an intra-peritoneal glucose tolerance test, the others (n=5) to a sensitivity test to intravenous insulin.\nIn addition this prevailing tolerance is often accompanied by insulin resistance. • Protocol: • fasted mice, • measurement of glycaemia at TO, • intra-peritoneal injection of glucose, • measurement of glycaemia 15, 30, 45, 60, 90, 120 and 180 min. after injection, • kinetics performed weeks 1, 12 and 18 in the preventive group and week 18 in the curative group."}, "[2]": {"test_system": "mice on HF/HS diet", "experiment": "Intra Peritoneal Insulin Sensitive Test (IPIST)", "format": "in vivo", "details": "preventive", "source_text": "The HF/HS diet induces a strong resistance to glucose. […] The test used is the Intra Peritoneal Insulin Sensitive Test—IPIST."}, "[3]": {"test_system": "mice on HF/HS diet", "experiment": "Weight of mice on HF/HS diet", "format": "in vivo", "details": "curative; TZD added to food", "method": "(§1) We used adult mice (aged 6 weeks) of masculine gender fattened on a high fat/high sucrose diet (HF/HS). Feeding with the HF/HS diet began on mice aged 6 weeks and continued throughout the period of the study. The study was conducted along 2 axes: • prevention: the product was administered as soon as feeding began with the HF/HS diet; • management (curative): the product was administered 12 weeks after the start of the HF/HS diet. Total treatment time (preventive and curative): 23 weeks.\n(§2) Each experimental group comprised 10 mice."}, "[4]": {"test_system": "PEPCK (target PPARγ)", "experiment": "mRNA analysis in the liver (Q-RT-PCR): PEPCK", "format": "in vivo, mice", "details": "TZD", "method": "(§3) the liver, the mRNA expressions of 8 genes were determined in 5 mice of each group using real-time Q-RT-PCR analysis."}, "[5]": {"test_system": "ACO (target PPARα)", "experiment": "mRNA analysis in the liver (Q-RT-PCR): ACO", "format": "in vivo, mice", "details": "TZD", "method": "as §3"}, "[6]": {"test_system": "PGC-1 (mitochondria biogenesis)", "experiment": "mRNA analysis in muscles and BAT: PGC-1", "format": "in vivo, mice", "details": "muscle; TZD", "method": "In the brown adipose tissue (BAT) and in the muscles, the mRNA expression of 3 genes was determined in 5 mice of each group by real-time Q-RTR-PCR analysis."}, "[7]": {"test_system": "ME, FAS, ACC (fatty acid synthesis)", "experiment": "mRNA analysis in the liver (Q-RT-PCR): ME, FAS, ACC", "format": "in vivo, mice", "details": "TZD", "method": "as §3"}, "[8]": {"test_system": "mice on HF/HS diet", "experiment": "Blood glucose and insulin analysis", "format": "in vivo", "method": "as §1, §2\n(§4) Subsequently the following were analysed: lipoprotein profile (by size exclusion chromatography); apolipoportein Al; lipid composition of the liver (liver triglycerides, cholesterol and free fatty acids); histological analysis of the liver and adipose tissue; staining of accumulated lipids in the liver."}, "[9]": {"test_system": "CYP7A1", "experiment": "mRNA analysis in the liver (Q-RT-PCR): CYP7A1", "format": "in vivo, mice", "details": "TZD", "method": "as §3"}, "[10]": {"test_system": "mice on HF/HS diet", "experiment": "Blood parameters: plasma lipids (cholesterol, LDL, HDL, TG, FFA)", "format": "in vivo", "method": "as §1, §2, §4\nThe different cholesterol blood levels and different fractions were analysed using a HPLC method."}, "[11]": {"test_system": "mice on HF/HS diet", "experiment": "Plasma lipoprotein profile (size exclusion chromatography)", "format": "in vivo", "details": "TZD", "method": "as §1, §2, §4"}, "[12]": {"test_system": "mice on HF/HS diet", "experiment": "Hepatic metabolism: transaminases and alkaline phosphatase (liver toxicity)", "format": "in vivo", "details": "plasma; considered very moderate, does not appear to reflect liver toxicity"}, "[13]": {"details": "curative, TZD, after 3 and 11 weeks"}, "[14]": {"details": "curative, TZD 10 mg/kg/day, (3 W***)"}, "[15]": {"details": "preventive, TZD 10 mg/kg/day, (3 W***)"}, "[16]": {"details": "preventive, TZD, after 3, 8, 15 and 23 weeks"}}}
{"smiles": "CN(CCOc1ccc(CC2SC(=O)NC2=O)cc1)c1ccccn1", "note": "(stereo not shown) [TZD, Rosiglitazone]", "values": [{"measurement": "Already established, diet-induced glucose resistance", "setting": "[1]; curative", "value": "does not act"}, {"measurement": "Glucose resistance (IPGTT)", "setting": "[1]; at 12 weeks", "value": "AUC value intermediate between HF/HS and normal diet"}, {"measurement": "Glucose resistance (IPGTT)", "setting": "[1]; at 18 weeks, return to normal kinetics", "value": "completely cancels out the effects of the HF/HS diet"}, {"measurement": "IPIST", "setting": "[2]; TZD 10 mg/kg/day, (3 W***)", "value": "↓↓"}, {"measurement": "Insulin sensitivity (IPIST)", "setting": "[2]; TZD, (15 min)", "value": "restores sensitivity to insulin"}, {"measurement": "Weight loss of overweight mice", "setting": "[3]", "value": "did not cause the overweight mice to lose weight"}, {"measurement": "PEPCK (target PPARγ) mRNA", "setting": "[4]", "value": "↑"}, {"measurement": "ACO (target PPARα) mRNA", "setting": "[5]", "value": "↑"}, {"measurement": "PGC-1 (mitochondria biogenesis) mRNA", "setting": "[6]", "value": "↑ (muscle)"}, {"measurement": "ME, FAS, ACC (fatty acid synthesis) mRNA", "setting": "[7]", "value": "↑↑"}, {"measurement": "GLUCOSE", "setting": "[8]; curative, TZD 10 mg/kg/day, (3 W**)", "value": "↓↓"}, {"measurement": "Glucose levels", "setting": "[8]; [13]", "value": "dropped considerably"}, {"measurement": "“Constitutive” hyperglycaemia", "setting": "[8]; preventive, TZD", "value": "return to normal"}, {"measurement": "GLUCOSE", "setting": "[8]; preventive, TZD 10 mg/kg/day", "value": "↓"}, {"measurement": "INSULIN", "setting": "[8]; preventive, TZD 10 mg/kg/day", "value": "↓"}, {"measurement": "Glucose level reduction", "setting": "[8]; preventive, TZD, weeks 8, 15 and 23", "value": "no longer observed"}, {"measurement": "CYP7A1 (conversion oxysterol into biliary acids) mRNA", "setting": "[9]", "value": "↑↑"}, {"measurement": "Triglyceride level", "setting": "[10]; curative, TZD", "value": "No change"}, {"measurement": "LDL", "setting": "[10]; curative, TZD 10 mg/kg/day", "value": "↓"}, {"measurement": "HDL", "setting": "[10]; [14]", "value": "↓↓"}, {"measurement": "Total cholesterol", "setting": "[10]; [14]", "value": "↓↓"}, {"measurement": "HDL cholesterol level", "setting": "[10]; [13]", "value": "reduction"}, {"measurement": "LDL cholesterol level", "setting": "[10]; [13]", "value": "reduction"}, {"measurement": "Total cholesterol", "setting": "[10]; [13]", "value": "reduction"}, {"measurement": "LDL cholesterol level", "setting": "[10]; preventive, TZD", "value": "downward trend"}, {"measurement": "TG (triglycerides)", "setting": "[10]; preventive, TZD 10 mg/kg/day", "value": "↓"}, {"measurement": "HDL", "setting": "[10]; [15]", "value": "↓↓"}, {"measurement": "Total cholesterol", "setting": "[10]; [15]", "value": "↓↓"}, {"measurement": "HDL cholesterol level", "setting": "[10]; [16]", "value": "significant reduction"}, {"measurement": "Total cholesterol level", "setting": "[10]; [16]", "value": "significant reduction"}, {"measurement": "Plasma levels of triglycerides", "setting": "[10]; preventive, TZD, after 8 weeks, no additional reduction after 15 and 23 weeks", "value": "significantly reduced"}, {"measurement": "HDL and VLDL cholesterol fractions", "setting": "[11]; curative, after 3 weeks", "value": "reduction"}, {"measurement": "HDL, LDL and VLDL cholesterol fractions", "setting": "[11]; preventive, weeks 8 and 15", "value": "reduction"}, {"measurement": "Alkaline phosphatase (ALP)", "setting": "[12]", "value": "increase"}]}
